The structures appear in SMILES notation. Where “and” joins values, the source holds several entries; their conditions need not be identical. Equal entries are not always repeated. Inconclusive results and toxic doses are left out.

The experiment concerns L1210 leukemia ip in BDF1 mice, survival T/C. As to the kind of experiment: NCI In Vivo Anticancer Drug Screen. Data for tumor model L1210 Leukemia (intraperitoneal) in B6D2F1 (BDF1) mice. The settings on record: endpoint: mean survival time, higher = longer survival. The method, boiled down:
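Transplanted-tumor mice were given test agent; controls received vehicle only. Survival readings from the two groups were divided (treated over control).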

[1] abbreviates: dose: 50.0 mg/kg/injection, schedule: Q01DX001 (ip), vehicle: saline.
The mark [2] stands for this setting: dose: 400.0 mg/kg/injection, schedule: Q01DX001 (ip), vehicle: carboxymethylcellulose (CMC).
Setting [3] is: dose: 100.0 mg/kg/injection, schedule: Q01DX001 (ip), vehicle: saline.
Setting [4] is: dose: 200.0 mg/kg/injection, schedule: Q01DX001 (ip), vehicle: saline.
Setting [5] is: dose: 400.0 mg/kg/injection, schedule: Q01DX001 (ip), vehicle: saline.
Setting [6] is: dose: 50.0 mg/kg/injection, schedule: Q01DX009 (ip), vehicle: saline with Tween-80.
[7] abbreviates: dose: 100.0 mg/kg/injection, schedule: Q01DX009 (ip), vehicle: saline with Tween-80.
[8] abbreviates: dose: 100.0 mg/kg/injection, schedule: Q04DX003 (ip), vehicle: saline with Tween-80.
[9] abbreviates: dose: 200.0 mg/kg/injection, schedule: Q01DX009 (ip), vehicle: saline with Tween-80.
The mark [10] stands for this setting: dose: 200.0 mg/kg/injection, schedule: Q04DX003 (ip), vehicle: saline with Tween-80.
Where [11] appears, read: dose: 400.0 mg/kg/injection, schedule: Q04DX003 (ip), vehicle: saline with Tween-80.
The mark [12] stands for this setting: dose: 50.0 mg/kg/injection, schedule: Q01DX009 (ip), vehicle: saline.
[13] abbreviates: dose: 100.0 mg/kg/injection, schedule: Q01DX001 (ip), vehicle: saline with Tween-80.
Setting [14] is: dose: 200.0 mg/kg/injection, schedule: Q01DX001 (ip), vehicle: saline with Tween-80.
Where [15] appears, read: dose: 100.0 mg/kg/injection, schedule: Q04DX002 (ip), vehicle: saline with Tween-80.
Where [16] appears, read: dose: 200.0 mg/kg/injection, schedule: Q04DX002 (ip), vehicle: saline with Tween-80.
[17] abbreviates: dose: 400.0 mg/kg/injection, schedule: Q04DX002 (ip), vehicle: saline with Tween-80.
Where [18] appears, read: dose: 400.0 mg/kg/injection, schedule: Q01DX009 (ip), vehicle: saline with Tween-80.
Setting [19] is: dose: 100.0 mg/kg/injection, schedule: Q01DX001 (ip), vehicle: carboxymethylcellulose (CMC).
[20] abbreviates: dose: 200.0 mg/kg/injection, schedule: Q01DX001 (ip), vehicle: carboxymethylcellulose (CMC).

As to `CS(=O)(=O)Nc1ccc(Nc2c3ccccc3nc3ccccc23)cc1`, the T/C is 108 % of control (dose: 10.0 mg/kg/injection, schedule: Q01DX009 (sc), vehicle: saline); 101 % of control (dose: 12.5 mg/kg/injection, schedule: Q01DX001 (ip), vehicle: saline); 161 % of control (dose: 20.0 mg/kg/injection, schedule: Q01DX009 (ip), vehicle: saline); 116 % of control (dose: 20.0 mg/kg/injection, schedule: Q01DX009 (sc), vehicle: saline); 119 % of control (dose: 25.0 mg/kg/injection, schedule: Q01DX001 (ip), vehicle: saline); 107 % of control (dose: 40.0 mg/kg/injection, schedule: Q01DX009 (ip), vehicle: saline). The T/C under setting [1] is 104 % of control; the T/C (dose: 117.0 mg/kg/injection, schedule: Q01DX009 (ip), vehicle: carboxymethylcellulose (CMC)) was 97 % of control; the T/C (dose: 176.0 mg/kg/injection, schedule: Q01DX001 (ip), vehicle: carboxymethylcellulose (CMC)) is 151 % of control; the T/C (dose: 176.0 mg/kg/injection, schedule: Q01DX009 (ip), vehicle: carboxymethylcellulose (CMC)) is 100 % of control; the T/C (dose: 240.0 mg/kg/injection, schedule: Q04DX003 (ip), vehicle: Klucel (hydroxypropylcellulose) (HPC)) was 156 % of control; the T/C (dose: 264.0 mg/kg/injection, schedule: Q01DX001 (ip), vehicle: carboxymethylcellulose (CMC)) is 161 % of control. The T/C is 158 % of control (dose: 266.0 mg/kg/injection, schedule: Q01DX001 (ip), vehicle: carboxymethylcellulose (CMC)); 150 % of control under setting [2]; 179 % of control and 253 % of control (dose: 600.0 mg/kg/injection, schedule: Q01DX001 (ip), vehicle: carboxymethylcellulose (CMC)).
Consider `Cn1cnc2[nH]c(Cl)nc(=S)c21`, for which the T/C is 95 % of control under setting [3], 92 % of control under setting [4] and 95 % of control under setting [5].
In the case of `COC(OC)c1[nH]c(=S)[nH]c(=O)c1Cc1ccccc1`, the T/C (dose: 25.0 mg/kg/injection, schedule: Q01DX009 (ip), vehicle: saline with Tween-80) is 98 % of control; the T/C under setting [6] is 96 % of control; the T/C under setting [7] is 98 % of control; the T/C under setting [8] is 102 % of control; the T/C under setting [9] is 86 % of control; the T/C under setting [10] is 96 % of control. The T/C under setting [11] is 94 % of control.
Take `Cc1cc(=O)n(C)c[n+]1C`: the T/C under setting [1] was 93 % of control; the T/C under setting [12] was 106 % of control; the T/C under setting [3] was 106 % of control; the T/C (dose: 100.0 mg/kg/injection, schedule: Q01DX009 (ip), vehicle: saline) is 109 % of control; the T/C under setting [4] was 100 % of control; the T/C (dose: 200.0 mg/kg/injection, schedule: Q01DX009 (ip), vehicle: saline) is 113 % of control. The T/C under setting [5] is 96 % of control.
On to `O=[N+]([O-])c1ccc(\C=C/C=C/C=C/C2(CCl)OCCO2)cc1`, for which the T/C under setting [13] is 91 % of control and the T/C under setting [14] was 87 % of control.
Take `CC(=O)OC1CC(OC2C(O)CC(OC3C(O)CC(OC4CCC5(C)C(CCC6C5CCC5(C)C(C7=CC(=O)OC7)CCC65O)C4)OC3C)OC2C)OC(C)C1OC1OC(CO)C(O)C(O)C1O` (centres undefined): the T/C (dose: 10.0 mg/kg/injection, schedule: Q01DX001 (ip), vehicle: saline) was 101 % of control.
Turning to `N=N/C(=C\c1c(O)[nH]c2ccccc12)c1ccccc1`, the T/C is, setting by setting: (dose: 100.0 mg/kg/injection, schedule: Q04DX002 (ip), vehicle: gum acacia) 92 % of control; (dose: 200.0 mg/kg/injection, schedule: Q04DX002 (ip), vehicle: gum acacia) 89 % of control; (dose: 400.0 mg/kg/injection, schedule: Q04DX002 (ip), vehicle: gum acacia) 100 % of control.
Regarding `COC1CCC(/C(C#N)=C/C2CCC(NC(C)=O)CC2)CC1` (centres undefined), the T/C under setting [15] was 101 % of control, the T/C under setting [16] is 105 % of control and the T/C under setting [17] is 94 % of control.
For the compound `CC(CN1CCCC1)C(O)(Cc1ccccc1)c1ccccc1` (centres undefined), the T/C by setting is: (dose: 25.0 mg/kg/injection, schedule: Q01DX009 (ip), vehicle: saline) 95 % of control; under setting [12], 95 % of control; (dose: 100.0 mg/kg/injection, schedule: Q04DX003 (ip), vehicle: saline) 92 % of control.
In the case of `OC1(CCC2OCCO2)c2ccccc2-c2ccccc21`, the T/C by setting is: under setting [13], 95 % of control; under setting [7], 93 % of control; under setting [15], 95 % of control and 100 % of control; under setting [8], 96 % of control; under setting [14], 90 % of control; under setting [9], 96 % of control and 100 % of control. The T/C is, setting by setting: under setting [16], 93 % of control and 102 % of control; under setting [10], 96 % of control; (dose: 400.0 mg/kg/injection, schedule: Q01DX001 (ip), vehicle: saline with Tween-80) 93 % of control; under setting [18], 96 % of control and 120 % of control; under setting [17], 95 % of control; under setting [11], 95 % of control.
In the case of `CC(C)CC(N)C(=O)NC1(C(=O)O)C2CC3CC(C2)CC1C3` (centres undefined), the T/C was 101 % of control (dose: 17.5 mg/kg/injection, schedule: Q01DX009 (ip), vehicle: Klucel (hydroxypropylcellulose) (HPC)); 96 % of control (dose: 35.0 mg/kg/injection, schedule: Q01DX009 (ip), vehicle: Klucel (hydroxypropylcellulose) (HPC)); 97 % of control (dose: 70.0 mg/kg/injection, schedule: Q01DX009 (ip), vehicle: Klucel (hydroxypropylcellulose) (HPC)); 103 % of control (dose: 75.0 mg/kg/injection, schedule: Q01DX009 (ip), vehicle: Klucel (hydroxypropylcellulose) (HPC)); 97 % of control (dose: 150.0 mg/kg/injection, schedule: Q01DX009 (ip), vehicle: Klucel (hydroxypropylcellulose) (HPC)); 92 % of control (dose: 300.0 mg/kg/injection, schedule: Q01DX009 (ip), vehicle: Klucel (hydroxypropylcellulose) (HPC)).
`C[N+](C)(CC(=O)Nc1ccc(Cl)c(C(F)(F)F)c1)Cc1ccc(Cl)cc1`: the T/C under setting [8] is 100 % of control.
As for `CCCCOCN1C(=O)N(COCCCC)C(=O)C(CC)(c2ccccc2)C1=O`, the T/C under setting [7] was 97 % of control, the T/C under setting [9] was 94 % of control and the T/C under setting [18] is 87 % of control.
With `Cc1nc(N)nc(N)c1-c1ccccc1`, the T/C under setting [19] is 100 % of control, the T/C under setting [20] is 94 % of control and the T/C under setting [2] is 92 % of control.
For `CCOC(=O)C1CC(=O)c2c1ccc1ccccc21` (centres undefined), the T/C (dose: 75.0 mg/kg/injection, schedule: Q01DX001 (ip), vehicle: other) was 105 % of control; the T/C (dose: 150.0 mg/kg/injection, schedule: Q01DX001 (ip), vehicle: other) was 97 % of control; the T/C (dose: 300.0 mg/kg/injection, schedule: Q01DX001 (ip), vehicle: other) is 96 % of control.
As to `CCOC(=O)c1cc(Cl)cc(Cl)c1N/N=[N+](\C)[O-]`, the T/C is 117 % of control under setting [6], 87 % of control under setting [7] and 93 % of control under setting [9].
For `CC(=O)c1cccc2c(C(C)=O)cccc12`, the T/C (dose: 50.0 mg/kg/injection, schedule: Q01DX001 (ip), vehicle: carboxymethylcellulose (CMC)) is 105 % of control; the T/C under setting [19] was 103 % of control; the T/C under setting [20] is 111 % of control; the T/C under setting [2] was 103 % of control.

Values taken from PubChem BioAssay AID248 (DTP/NCI, 2004).
